{
  "source": "patent US4542153A",
  "about": "“Methods for changing calcium metabolism within the cells of a mammal” (The Ohio State University Research Foundation, priority 1983, dated 1985)",
  "key": {"[1]": {"tested_on": "thoracic aorta strips contracted with norepinephrine", "experiment": "Vasodilator activity: norepinephrine-contracted aortic strips", "assay_type": "cell-based, male Sprague-Dawley rats", "excerpt": "Pr-MDI, bu-MDI, Q-bu-MDI and the compounds of Formulae IIIA, IIIB and IVA having the two R1 groups together forming a methylene group, each R3 a methyl group and R2 an n-propyl group or n-butyl group (the compounds of Formula III are hereinafter abbreviated as sat-pr-MDI and sat-bu-MDI respectively, reference being made where necessary to the cis isomer of Formula III A or the trans isomer of Formula III B while the compounds of Formula IV are similarly referred to as cis sat-Q-pr-MDI and cis sat-Q-bu-MDI) were tested for vasodilator activity by the method of R. F. Furchgott and S. Bhadrakom, J. P. Pharmacol. Ex. Ther., 108, 129-143 (1953).\nThe vasodilator activity tests were conducted on male Sprague-Dawley rats, obtained from Harlan Industries, Inc., Cumberland, Indiana. The rats, weight 250-300 g., were sacrified by cervical dislocation and a 2.5 cm. segment of the thoracic aorta was removed and rinshed in physiological buffer. Each aortic segment was cleaned of connective tissue and cut spirally two yield to strips, each 3 by 15 mm. Each strip was mounted isometrically under a tension of 1 g in a 10 ml. tissue bath thermostatically maintained at 37° C. and containing a normal physiological solution aerated with a 95% oxygen/5% carbon dioxide mixture. Forces generated by the strip were monitored using a Grass FT03 isometric transducer coupled to a Grass module 7D polygraph recorder, both the transducer and the recorder being obtained from Grass Instrument Co., of Quincy, Mass.\nAfter the aortic tissue had been allowed to equilibriate for 1-1.5 hours in the normal physiologic solution, tissue contraction was induced by introducing either 10^-7 M norepinephrine or 40mM potassium chloride buffer to the tissue bath.\nTo avoid interference by loss of tension due to time dependent tissue fatigue, separate preliminary experiments were performed to determine the degree of tissue relaxation due to such fatigue and the value of the control tension generated by norepinephrine or potassium chloride prior to the addition of the test compounds was adjusted whenever the duration of the experiment was such that fatigue could be expected to cause more than a 6% loss of tension. […] All concentrations mentioned hereinafter represent the final concentration of the test compound after dilution in the tissue bath.\nThe figures of concentration against percent response data obtained from each aortic tissue were transformed to its appropriate probit value and IC50 values were then estimated using linear regression analysis. The normal physiological solution contained 6.9 g/l of sodium chloride, 0.35 g/l of potassium chloride, 0.11 g/l of magnesium chloride hexahydrate, 0.138 g/l of sodium dihydrogen phosphate, 2.1 g/l of sodium bicarbonate, 0.01 g/l of EDTA, 0.368 g/l of calcium chloride dihydrate and 2.0 g/l of dextrose. The high potassium buffers were obtained by substituting potassium chloride for sodium chloride on an equimolar basis to maintain tonicity."}, "[2]": {"tested_on": "chloroform anoxia arrhythmia in mice", "experiment": "Chloroform Anoxia Assay (chloroform-induced ventricular fibrillation)", "assay_type": "in vivo, Female Swiss albino mice", "experimental": "The same four compounds were tested for their ability to protect mice from chloroform anoxia by the classical chloroform inhalation procedure described in Lawson J. W.: Antiarrhythmic activity of some isoquinoline derivatives determined by a rapid screening procedure in the mouse, J. Pharmacol. Exp. Ther. 160: 22-31, (1968). In this method, chloroform inhalation leading to respiratory arrest produces ventricular fibrillation. Female Swiss albino mice procured from Laboratory Supply Company, Indianapolis, Indiana, weighing 16-22 g, were pretreated intraperitoneally with the compound under test dissolved in a 5% dextrose solution 10 minutes before exposure to chloroform in a closed container containing chloroform-saturated cotton. The mice were removed from the chloroform atmosphere immediately after respiratory arrest and the electrocardiograph lead II monitored. The ED 50 and 95% confidence limits calculated for the anti-arrhythmic agents by the standard method of Litchfield and Wilcoxon."}},
  "data": [
    {"smiles": "CCCCC1=Cc2cc3c(cc2C1[N+](C)(C)C)OCO3.[I-]", "note": "(stereo not shown) [Q-bu-MDI, 2-Butyl-5,6-methylenedioxyindene-1-trimethylammonium iodide]", "values": [
      {"measurement": "relaxation of the aortic tissue", "setting": "[1]; norepinephrine- or KCl-treated tissue", "result": "relaxed the aortic tissue"},
      {"measurement": "comparative vasodilator activity, norepinephrine-treated tissue", "setting": "[1]; norepinephrine-treated aortic tissue", "result": "less active in vitro than their tertiary analogs"},
      {"measurement": "IC50", "setting": "[1]; rat aorta contracted with 10^-7 M norepinephrine, read-out: IC50 (mean and range of SEM) Norepinephrine", "result": 128, "unit": "µM"},
      {"measurement": "Therapeutic Index (LD50/ED50)", "setting": "[2]; ED50 from chloroform anoxia, LD50 i.p.", "result": 6.2},
      {"measurement": "ED50", "setting": "[2]; i.p., 10 min before chloroform, table: mean values and 95% confidence limits, n = 40", "result": 10.5, "unit": "mg/kg"},
      {"measurement": "ED50 compared with quinidine (statistical test)", "setting": "[2]; i.p., p<<0.05", "result": "significantly smaller than that of quinidine"},
      {"measurement": "Antiarrhythmic Potency", "setting": "[2]; quinidine = 1.00, chloroform anoxia", "result": 6.38}
    ]}
  ]
}
